US4018925A, “Method of arresting bacterial growth with certain selected dichloro-2,2,5,5-tetrasubstituted-3-6-piperazinediones” (Interx Research Corporation, priority 1975, dated 1977)

Experiments:
[1] = Stability of N-chloramines in aqueous solution (half-life, iodometric and/or spectrophotometric); assay type: physicochemical; settings: for half-life: temperature 40
Description: The stability of the compound, 1,4-dichloro-2,2,5,5-tetramethyl-3,6-piperazinedione in aqueous solution was determined by (1) following the disappearance of the positive chlorine concentration of the N-Chloramine solution iodometrically and/or (2) following the decrease in the absorbance at the maximum wavelength spectrophotometrically.
The data obtained was interpreted in terms of a first order kinetic process and the half-life of said compound was reported in units of time at the condition under which they were determined.

Staph. aureus = experiment: Antibacterial activity: time required for complete sterilization (modified serial dilution method); assay type: cell-based, Staph. aureus ATCC 6538
Source text: (§1) The procedure to determine the antibacterial activity of 1,4-dichloro-2,2,5,5-tetramethyl-3,6-piperazinedione was based primarily on a modification of the serial dilution method of analysis. However, instead of determining the minimum inhibitory concentration parameters for the compound investigated, applicants alternatively chose to determine the bactericidal endpoint for a given concentration of the compound investigated. Consequently, applicants studies were established to determine the time required for complete sterilization of the micro-organism tested, when exposed to a given concentration of the compound investigated.
(§2) Nutrient Broth B.B.L. -- 8g/1000 ml. distilled water. The broth contains 5g. gelysate peptone and 3g. beef extract. The solution has a pH of 6.9.
(§3) Nutrient Agar -- 23g/1000 ml. distilled water. The nutrient contains 5g. gelysate peptone, 3g. beef extract and 15g. agar.
(§4) Horse Serum T.C. -- 10% horse serum solution in distilled water. The serum solution was freshly prepared and adjusted to a pH of 7 using carbon dioxide prior to its use.
(§5) A stock solution of the isolated compound (1,4,dichloro-2,2,5,5-tetramethyl-3,6-piperazinedione) was prepared using an appropriate buffered solution.
(§6) For screening in the absence of a denaturing agent (e.g., horse serum) an equal volume of distilled water and the resulting solution was subjected to the screen.
(§7) For screening in the presence of a denaturing agent, a volume of the stock solution was diluted using an equal volume of 10% horse serum. When necessary, the final solution was adjusted to the desired pH using 1N HCL and the solution was permitted to stand at room temperature for thirty minutes prior to the screening procedure.
(§8) To 5 ml. of the stock solution being evaluated, there was added 0.2 ml. of an overnight broth culture containing the particular micro-organism being investigated (see above). At time intervals of 0.5, 1, 2, 3, 4, 5, . . . minutes, a loop of this suspension was subcultured into 5 ml. of a sterile nutrient broth. All the samples were then incubated at 37° C for seven days with daily observation for evidence of bacterial growth. The time interval reported is for that sample in which no bacterial growth was observed after the incubation period.
(§9) To 5 ml. of a sterile 0.9% sodium chloride solution, there was added 0.2 ml. of an overnight broth culture containing the particular micro-organismbeing investigated. A loop of this suspension was subcultured into 5 ml. of a sterile nutrient broth and incubated at 37° C for seven days.
(§10) To 5 ml of a sterile nutrient broth, there was added a loop of the 1,4-dichloro-2,2,5,5-tetramethyl-3,6-piperazinedione solution and the solution was mixed immediately. To this solution, there was then added a loop of an overnight broth culture which was diluted 25x with a 0.9% sodium chloride solution. Incubation was carried out for seven days at a temperature of 37° C.
(§11) At the same time intervals used for subculturing the test solution into nutrient broth during the screening procedure, a loop of the test solution was also subcultured onto sterile nutrient agar plates. This technique was useful for observing the characteristic colonial morphology of each organism.
(§12) The entire screening procedure was conducted for each buffered solution using the buffered solution rather than the 1,4-dichloro-2,2,5,5-tetramethyl-3,6-piperazinedione solution in the procedure.

E. coli = experiment: as above; assay type: cell-based, E. coli ATCC 10536
Source text: as §1, §2, §3, §4, §5, §6, §7, §8, §9, §10, §11, §12

Bord. bronchiseptica = experiment: as above; assay type: cell-based, Bord. bronchiseptica ATCC 4617
Source text: as §1, §2, §3, §4, §5, §6, §7, §8, §9, §10, §11, §12

Staph. epidermidis = experiment: as above; assay type: cell-based, Staph. epidermidis ATCC 12228
Source text: as §1, §2, §3, §4, §5, §6, §7, §8, §9, §10, §11, §12

Pseud. aeruginosa = experiment: as above; assay type: cell-based, Pseud. aeruginosa ATCC 9027
Source text: as §1, §2, §3, §4, §5, §6, §7, §8, §9, §10, §11, §12

Kleb. pneumoniae = experiment: as above; assay type: cell-based, Kleb. pneumoniae ATCC 10031
Source text: as §1, §2, §3, §4, §5, §6, §7, §8, §9, §10, §11, §12

[2] = 0.1M Na2B4O7 pH8.8, diluent H2O, 0.62 × 10^-3 M (146PPM), positive Cl 43 PPM
[3] = 0.1M NaH2PO4, diluent H2O, 0.52 × 10^-3 M, positive Cl 36 PPM
[4] = 0.1M NaH2PO4 pH7.0, diluent serum (10% horse serum), 0.52 × 10^-3 M (126PPM), positive Cl 36 PPM
[5] = 0.1M NaOAc pH 4.6, diluent H2O, 0.59 × 10^-3 M (139 PPM), positive Cl 41 PPM
[6] = 0.1M NaOAc pH 4.6, diluent serum (10% horse serum), 0.59 × 10^-3 M (139 PPM), positive Cl 41 PPM

In the case of O=C1CN(Cl)C(=O)CN1Cl [1,4-dichloro-2,5-piperazinedione, reference compound], the half-life ([1]; 0.1M Na2B4O7 pH 9.3) is reported as 0.717 h, the half-life ([1]; 0.1M NaH2PO4 pH 7.0) is reported as 0.883 h and the half-life ([1]; 0.1M NaOAc pH 4.6) is reported as 15.5 h.
CC1(C)C(=O)N(Cl)C(C)(C)C(=O)N1Cl [1,4-dichloro-2,2,5,5-tetramethyl-3,6-piperazinedione] showed a half-life ([1]; 0.1M Na2B4O7 pH 9.3) of 38 h, a half-life ([1]; 0.1M NaH2PO4 pH 7.0) of 332 h and a half-life ([1]; 0.1M NaOAc pH 4.6) of 3070 h. The “Stability (half-life) compared with 1,4-dichloro-2,5-piperazinedione” value ([1]; same pH (4.6, 7.0 and 9.3)) was “far greater stability (half-life)”, the “Antibacterial activity time, 6538” value (Staph. aureus; [2]) was 4 min and the “Antibacterial activity time, 6538” value (Staph. aureus; [3]) was 4 min. For the same molecule, the “Antibacterial activity time, 6538” value (Staph. aureus; [4]) was greater than 15 min, the “Antibacterial activity time, 6538” value (Staph. aureus; [5]) was 3 min and the “Antibacterial activity time, 6538” value (Staph. aureus; [6]) was greater than 15 min. The “Antibacterial activity time, 10536” value (E. coli; [2]) was 1 min, the “Antibacterial activity time, 10536” value (E. coli; [3]) was 1 min and the “Antibacterial activity time, 10536” value (E. coli; [4]) was greater than 15 min. The “Antibacterial activity time, 10536” value (E. coli; [5]) was 1 min, the “Antibacterial activity time, 10536” value (E. coli; [6]) was greater than 10 min and the “Antibacterial activity time, 4617” value (Bord. bronchiseptica; [2]) was 4 min. For the same molecule, the “Antibacterial activity time, 4617” value (Bord. bronchiseptica; [3]) was 3 min, the “Antibacterial activity time, 4617” value (Bord. bronchiseptica; [4]) was greater than 15 min and the “Antibacterial activity time, 4617” value (Bord. bronchiseptica; [5]) was 1 min. For the same molecule, the “Antibacterial activity time, 4617” value (Bord. bronchiseptica; [6]) was greater than 10 min, the “Antibacterial activity time, 12228” value (Staph. epidermidis; [2]) was 2 min and the “Antibacterial activity time, 12228” value (Staph. epidermidis; [3]) was 2 min. For the same molecule, the “Antibacterial activity time, 12228” value (Staph. epidermidis; [4]) was greater than 15 min, the “Antibacterial activity time, 12228” value (Staph. epidermidis; [5]) was 2 min and the “Antibacterial activity time, 12228” value (Staph. epidermidis; [6]) was greater than 15 min. The “Antibacterial activity time, 9027” value (Pseud. aeruginosa; [2]) was 4 min, the “Antibacterial activity time, 9027” value (Pseud. aeruginosa; [3]) was 5 min and the “Antibacterial activity time, 9027” value (Pseud. aeruginosa; [4]) was greater than 15 min. The “Antibacterial activity time, 9027” value (Pseud. aeruginosa; [5]) was 3 min, the “Antibacterial activity time, 9027” value (Pseud. aeruginosa; [6]) was greater than 10 min and the “Antibacterial activity time, 10031” value (Kleb. pneumoniae; [2]) was 4 min. For the same molecule, the “Antibacterial activity time, 10031” value (Kleb. pneumoniae; [3]) was 4 min, the “Antibacterial activity time, 10031” value (Kleb. pneumoniae; [4]) was greater than 15 min and the “Antibacterial activity time, 10031” value (Kleb. pneumoniae; [5]) was 2 min. The “Antibacterial activity time, 10031” value (Kleb. pneumoniae; [6]) was greater than 10 min.
